# Source: patent US20040254162A1, “Oxazolidinone derivatives as antimicrobials” (priority 2001, published 2004)
# What was measured:
# Experiment in all cases: MIC, agar incorporation method
# Conditions in all cases: agar incorporation
# S. pneum AB 34 = system: S. pneum AB 34
# VRE 6A (Ent. faecium 6A) = system: VRE 6A (Ent. faecium 6A)
# Ent. faecalis ATCC 29212 = system: Ent. faecalis ATCC 29212
# MRSA 33 = system: MRSA 33
# MRSA 15187 = system: MRSA 15187
# Strep. pyog. ATCC 19615 = system: Strep. pyog. ATCC 19615
# S. aureus ATCC 25923 = system: S. aureus ATCC 25923
# Strep. pne. ATCC 6303 = system: Strep. pne. ATCC 6303
Structure (SMILES),MIC S. pneum AB 34 (S. pneum AB 34),MIC VRE 6A (VRE 6A (Ent. faecium 6A)),MIC E. faecalis 29212 (Ent. faecalis ATCC 29212),MIC MRSA 33 (MRSA 33),MIC MRSA 15187 (MRSA 15187),MIC S. pyogenes 19615 (Strep. pyog. ATCC 19615),MIC S. aureus 25923 (S. aureus ATCC 25923),MIC S. pneum 6303 (Strep. pne. ATCC 6303)
CC(=O)NC[C@H]1CN(c2ccc(N3CCN(Cc4ccc([N+](=O)[O-])o4)CC3)c(F)c2)C(=O)O1.O=C(O)CC(O)(CC(=O)O)C(=O)O [Compound No. 17],1 µg/mL,4 µg/mL,2 µg/mL,2 µg/mL,2 µg/mL,1 µg/mL,2 µg/mL,2 µg/mL
COC(=O)Cc1ccc(NC(=O)ON=Cc2ccc(CN3CCN(c4ccc(N5C[C@H](CNC(C)=O)OC5=O)cc4F)CC3)o2)cc1 [Compound No. 61],8 µg/mL,8 µg/mL,8 µg/mL,8 µg/mL,8 µg/mL,8 µg/mL,8 µg/mL,8 µg/mL
"CC(=O)NC[C@H]1CN(c2ccc(N3CCN(Cc4ccc([N+](=O)[O-])s4)CC3)c(F)c2)C(=O)O1 [Compound No. 23, (S)-N[[3-[3-Fluoro-4-[N-1[4-(2-thienyl(5-nitro)methyl}]piperazinyl]phenyl]2-oxo-5-oxazolidinyl]methyl]acetamide]",8 µg/mL,8 µg/mL,8 µg/mL,8 µg/mL,8 µg/mL,1 µg/mL,8 µg/mL,8 µg/mL

# Results, then the compound that gave them:
MIC S. pneum AB 34 (S. pneum AB 34),MIC VRE 6A (VRE 6A (Ent. faecium 6A)),MIC E. faecalis 29212 (Ent. faecalis ATCC 29212),MIC MRSA 33 (MRSA 33),MIC MRSA 15187 (MRSA 15187),MIC S. pyogenes 19615 (Strep. pyog. ATCC 19615),MIC S. aureus 25923 (S. aureus ATCC 25923),MIC S. pneum 6303 (Strep. pne. ATCC 6303),Structure (SMILES)
8 µg/mL,8 µg/mL,8 µg/mL,8 µg/mL,8 µg/mL,1 µg/mL,8 µg/mL,4 µg/mL,"CC(=O)NC[C@H]1CN(c2ccc(N3CC4C(C3)C4N(C)C(=O)c3ccsc3)c(F)c2)C(=O)O1 (stereo partly drawn) [Compound No. 73, (S)-N-[[3-[3-Fluoro[4-[3-(1α,5α,6α)-6-[N-(3-thienoyl)-N-methyl]amino]-3-aza-bicyclo[3.1.0]hexane]phenyl]-2-oxo-5-oxazolidinyl]methyl]acetamide]"
4 µg/mL,8 µg/mL,8 µg/mL,4 µg/mL,4 µg/mL,0.25 µg/mL,8 µg/mL,4 µg/mL,"CC(=O)NC[C@H]1CN(c2ccc(N3CC4C(C3)C4N(C)Cc3ccc(C=O)o3)c(F)c2)C(=O)O1 (stereo partly drawn) [Compound No. 72, (S)-N-[[3-[3-Fluoro[4-[3-(1α,5α,6α)-6-[N-(5-formyl-2-furylmethyl)-N-methyl]-amino]-3-azabicyclo-[3.1.0]hexane]phenyl]-2-oxo-5-oxazolidinyl]methyl]acetamide]"
4 µg/mL,8 µg/mL,8 µg/mL,8 µg/mL,8 µg/mL,1 µg/mL,8 µg/mL,4 µg/mL,"CC(=O)NC[C@H]1CN(c2ccc(N3CC4C(C3)C4N(C)C(=O)c3ccoc3)c(F)c2)C(=O)O1 (stereo partly drawn) [Compound No. 32, (S)-N-[[3-[3-Fluoro[4-[3-(1α,5α,6α)-6-[N-(3-furoyl)-N-methyl]amino]-3-azabicyclo-[3.1.0]hexane]phenyl]-2-oxo-5-oxazolidinyl]methyl]acetamide]"
4 µg/mL,4 µg/mL,4 µg/mL,4 µg/mL,4 µg/mL,0.5 µg/mL,4 µg/mL,8 µg/mL,"CC(=O)NC[C@H]1CN(c2ccc(N3C[C@@H]4[C@H](C3)[C@H]4N(C)C(=O)c3ccc(Br)o3)c(F)c2)C(=O)O1 [Compound No. 33, (S)-N-[[3-[3-Fluoro[4-[3-(1α,5α,6α)-6-[N-(5-bromo-2-furoyl)-N-methyl]amino]-3-azabicyclo-[3.1.0.]hexane]phenyl]-2-oxo-5-oxazolidinyl]methyl]acetamide]"
